Experimental data reported in ChEMBL document CHEMBL4477239 (Bioorg Med Chem, 2016).

Assays:
[1] = in vitro; conditions: human, Caco-2
Description: Apparent permeability from apical to basolateral side in Caco2 cells at 1 to 10 uM incubated for 90 mins by LC-MS/MS analysis

[2] = Intrinsic clearance in rat liver microsomes assessed per mg of protein at 1 uM preincubated for 5 mins followed by NADPH addition measured after 5 to 30 mins by LC-MS/MS analysis; format: ADME, Microsome; conditions: read-out: CLH
[3] = system: NCI-H1993; assay: Cytotoxicity against human NCI-H1993 cells assessed as growth inhibition after 72 hrs by CCK-8 assay; conditions: NCI-H1993, 72 h
[4] = Intrinsic clearance in human liver microsomes assessed per mg of protein at 1 uM preincubated for 5 mins followed by NADPH addition measured after 5 to 30 mins by LC-MS/MS analysis; format: ADME, Microsome; conditions: read-out: CLH
[5] = biological target: Cytochrome P450 2C9 (Homo sapiens, UniProt P11712); assay: Inhibition of CYP2C9 in human liver microsomes at 10 uM using sulfaphenazole as […] preincubated for 5 mins followed by NADPH addition measured after 20 mins by LC-MS/MS analysis; format: ADME
Sequence of Cytochrome P450 2C9 (P11712 whole entry): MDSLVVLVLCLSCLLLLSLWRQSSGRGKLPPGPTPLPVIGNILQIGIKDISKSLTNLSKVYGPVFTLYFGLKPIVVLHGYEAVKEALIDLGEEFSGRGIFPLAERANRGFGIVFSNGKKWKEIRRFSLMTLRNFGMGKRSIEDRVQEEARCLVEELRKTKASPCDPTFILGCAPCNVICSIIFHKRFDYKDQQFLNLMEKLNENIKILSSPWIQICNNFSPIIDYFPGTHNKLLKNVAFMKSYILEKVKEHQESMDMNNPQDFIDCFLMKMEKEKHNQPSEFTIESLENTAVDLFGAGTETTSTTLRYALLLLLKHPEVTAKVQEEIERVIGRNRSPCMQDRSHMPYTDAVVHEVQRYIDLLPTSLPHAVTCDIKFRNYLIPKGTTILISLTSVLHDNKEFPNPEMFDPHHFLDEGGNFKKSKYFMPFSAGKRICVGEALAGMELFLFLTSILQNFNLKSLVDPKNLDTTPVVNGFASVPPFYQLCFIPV

[6] = biological target: T1, Cytochrome P450 3A4 (Homo sapiens, UniProt P08684); assay: Time-dependent inhibition of CYP3A4 in human liver microsomes at 10 uM using troleandomycin as […] preincubated with compound followed by NADPH addition by LC-MS/MS analysis; format: ADME
T1 sequence (P08684 whole entry): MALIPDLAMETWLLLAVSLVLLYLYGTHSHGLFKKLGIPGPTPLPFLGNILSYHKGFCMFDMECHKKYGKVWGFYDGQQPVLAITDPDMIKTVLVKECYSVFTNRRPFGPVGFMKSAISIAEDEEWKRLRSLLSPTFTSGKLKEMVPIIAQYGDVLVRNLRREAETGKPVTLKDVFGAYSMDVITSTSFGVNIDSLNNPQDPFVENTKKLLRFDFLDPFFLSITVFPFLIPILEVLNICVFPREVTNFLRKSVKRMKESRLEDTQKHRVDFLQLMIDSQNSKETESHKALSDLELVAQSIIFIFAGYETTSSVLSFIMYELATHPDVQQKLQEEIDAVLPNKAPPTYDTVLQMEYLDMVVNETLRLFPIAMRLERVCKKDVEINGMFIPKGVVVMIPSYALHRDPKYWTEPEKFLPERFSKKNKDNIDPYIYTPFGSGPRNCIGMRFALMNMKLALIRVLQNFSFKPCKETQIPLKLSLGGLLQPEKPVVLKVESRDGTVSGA

[7] = biological target: T2, Cytochrome P450 2D6 (Homo sapiens, UniProt P10635); assay: Time-dependent inhibition of CYP2D6 in human liver microsomes at 10 uM using paroxetine as […] preincubated with compound followed by NADPH addition by LC-MS/MS analysis; format: ADME
T2 sequence (P10635 whole entry): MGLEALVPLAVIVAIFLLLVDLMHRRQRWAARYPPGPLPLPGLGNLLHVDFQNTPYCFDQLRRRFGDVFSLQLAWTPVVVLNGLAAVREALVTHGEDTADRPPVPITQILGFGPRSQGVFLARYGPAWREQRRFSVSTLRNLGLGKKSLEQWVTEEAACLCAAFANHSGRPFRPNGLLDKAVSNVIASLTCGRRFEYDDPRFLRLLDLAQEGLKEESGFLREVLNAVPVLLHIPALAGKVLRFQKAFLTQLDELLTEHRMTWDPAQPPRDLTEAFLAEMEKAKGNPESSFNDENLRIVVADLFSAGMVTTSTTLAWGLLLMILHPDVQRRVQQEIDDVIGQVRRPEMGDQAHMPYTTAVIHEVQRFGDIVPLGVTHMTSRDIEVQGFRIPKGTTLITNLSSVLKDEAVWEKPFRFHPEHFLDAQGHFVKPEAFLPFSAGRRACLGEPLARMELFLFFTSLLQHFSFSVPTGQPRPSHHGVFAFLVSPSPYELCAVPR

[8] = biological target: T3, Cytochrome P450 1A2 (Homo sapiens, UniProt P05177); assay: Time-dependent inhibition of CYP1A2 in human liver microsomes at 10 uM using furafylline as […] preincubated with compound followed by NADPH addition by LC-MS/MS analysis; format: ADME
T3 sequence (P05177 whole entry): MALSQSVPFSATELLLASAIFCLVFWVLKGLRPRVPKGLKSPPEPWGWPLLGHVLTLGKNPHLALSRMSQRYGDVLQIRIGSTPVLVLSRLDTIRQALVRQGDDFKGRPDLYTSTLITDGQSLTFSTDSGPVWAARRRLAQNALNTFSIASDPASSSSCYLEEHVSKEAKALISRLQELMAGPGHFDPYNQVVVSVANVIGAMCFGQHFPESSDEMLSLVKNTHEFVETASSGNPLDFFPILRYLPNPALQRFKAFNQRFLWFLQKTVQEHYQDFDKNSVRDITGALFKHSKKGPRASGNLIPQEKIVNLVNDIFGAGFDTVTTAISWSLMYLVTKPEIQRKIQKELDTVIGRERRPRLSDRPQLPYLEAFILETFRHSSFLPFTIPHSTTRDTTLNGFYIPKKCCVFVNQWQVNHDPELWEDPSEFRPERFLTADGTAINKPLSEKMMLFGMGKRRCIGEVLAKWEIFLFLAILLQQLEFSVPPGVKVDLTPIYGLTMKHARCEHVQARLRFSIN

[9] = Apparent permeability from basolateral to apical side in Caco2 cells at 1 to 10 uM incubated for 90 mins by LC-MS/MS analysis; format: ADME, cell-based; conditions: human, Caco-2
[10] = Efflux ratio of permeability from basolateral to apical side over apical to basolateral side in Caco2 cells at 1 to 10 uM incubated for 90 mins by LC-MS/MS analysis; format: ADME, cell-based; conditions: human, Caco-2
[11] = biological target: Tyrosine-protein kinase receptor UFO (Homo sapiens, UniProt P30530); assay: Inhibition of human AXL
[12] = biological target: Macrophage-stimulating protein receptor (Homo sapiens, UniProt Q04912); assay: Inhibition of human RON
[13] = biological target: ALK tyrosine kinase receptor (Homo sapiens, UniProt Q9UM73); assay: Inhibition of human ALK
[14] = biological target: Vascular endothelial growth factor receptor 1 (Homo sapiens, UniProt P17948); assay: Inhibition of human FLT1
Sequence of Vascular endothelial growth factor receptor 1 (P17948 whole entry): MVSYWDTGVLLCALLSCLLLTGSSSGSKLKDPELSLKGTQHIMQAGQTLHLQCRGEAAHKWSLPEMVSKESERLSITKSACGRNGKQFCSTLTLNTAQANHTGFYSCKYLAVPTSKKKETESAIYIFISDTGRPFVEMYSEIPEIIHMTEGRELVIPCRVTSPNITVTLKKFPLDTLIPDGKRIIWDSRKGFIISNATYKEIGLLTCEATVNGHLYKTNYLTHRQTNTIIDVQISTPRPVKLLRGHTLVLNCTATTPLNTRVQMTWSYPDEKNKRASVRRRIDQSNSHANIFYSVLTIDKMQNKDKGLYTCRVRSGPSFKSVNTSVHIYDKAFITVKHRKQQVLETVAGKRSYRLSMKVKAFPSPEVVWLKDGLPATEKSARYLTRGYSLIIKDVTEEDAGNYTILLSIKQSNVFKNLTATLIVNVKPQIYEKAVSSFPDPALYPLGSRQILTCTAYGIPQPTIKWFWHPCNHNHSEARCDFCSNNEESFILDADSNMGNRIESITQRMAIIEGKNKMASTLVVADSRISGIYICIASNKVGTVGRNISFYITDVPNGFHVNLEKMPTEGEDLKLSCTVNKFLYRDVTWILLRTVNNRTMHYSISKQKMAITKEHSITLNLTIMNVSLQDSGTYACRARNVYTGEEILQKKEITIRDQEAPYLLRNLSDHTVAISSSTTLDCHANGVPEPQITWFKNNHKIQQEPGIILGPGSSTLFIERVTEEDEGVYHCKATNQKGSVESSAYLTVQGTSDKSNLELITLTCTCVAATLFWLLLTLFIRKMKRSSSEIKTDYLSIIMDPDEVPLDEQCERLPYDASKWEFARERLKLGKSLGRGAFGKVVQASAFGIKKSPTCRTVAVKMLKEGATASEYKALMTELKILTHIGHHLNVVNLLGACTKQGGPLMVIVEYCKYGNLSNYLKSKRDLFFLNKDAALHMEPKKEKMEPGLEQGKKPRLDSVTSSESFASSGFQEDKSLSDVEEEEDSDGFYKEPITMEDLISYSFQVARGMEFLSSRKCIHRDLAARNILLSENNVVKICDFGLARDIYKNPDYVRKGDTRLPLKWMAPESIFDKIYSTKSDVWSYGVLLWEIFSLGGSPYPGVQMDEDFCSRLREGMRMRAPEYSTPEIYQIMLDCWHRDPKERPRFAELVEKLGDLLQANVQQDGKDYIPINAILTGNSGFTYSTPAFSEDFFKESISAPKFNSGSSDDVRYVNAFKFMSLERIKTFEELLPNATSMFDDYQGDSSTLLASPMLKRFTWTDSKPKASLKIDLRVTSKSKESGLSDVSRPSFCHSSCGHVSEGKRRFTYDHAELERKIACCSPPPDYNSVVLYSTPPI

[15] = biological target: Vascular endothelial growth factor receptor 2 (Homo sapiens, UniProt P35968); assay: Inhibition of human VEGFR2
[16] = biological target: Mast/stem cell growth factor receptor Kit (Homo sapiens, UniProt P10721); assay: Inhibition of human c-Kit
[17] = biological target: Platelet-derived growth factor receptor alpha (Homo sapiens, UniProt P16234); assay: Inhibition of human PDGFRalpha
[18] = biological target: Platelet-derived growth factor receptor beta (Homo sapiens, UniProt P09619); assay: Inhibition of human PDGFRbeta
[19] = biological target: Proto-oncogene tyrosine-protein kinase receptor Ret (Homo sapiens, UniProt P07949); assay: Inhibition of human RET
[20] = biological target: Epidermal growth factor receptor (Homo sapiens, UniProt P00533); assay: Inhibition of human EGFR
[21] = biological target: Epidermal growth factor receptor (Homo sapiens, UniProt P00533, T790M); assay: Inhibition of human EGFR T790M mutant
[22] = biological target: Receptor tyrosine-protein kinase erbB-4 (Homo sapiens, UniProt Q15303); assay: Inhibition of human ERBB4
[23] = biological target: Proto-oncogene tyrosine-protein kinase Src (Homo sapiens, UniProt P12931); assay: Inhibition of human c- SRC
[24] = biological target: Tyrosine-protein kinase ABL1 (Homo sapiens, UniProt P00519); assay: Inhibition of human ABL
[25] = biological target: Ephrin type-A receptor 2 (Homo sapiens, UniProt P29317); assay: Inhibition of human EPHA2
[26] = biological target: Ephrin type-B receptor 2 (Homo sapiens, UniProt P29323); assay: Inhibition of human EPHB2
[27] = biological target: Insulin-like growth factor 1 receptor (Homo sapiens, UniProt P08069); assay: Inhibition of human IGF1R
[28] = biological target: Fibroblast growth factor receptor 1 (Homo sapiens, UniProt P11362); assay: Inhibition of human FGFR1
[29] = biological target: Hepatocyte growth factor receptor (Homo sapiens, UniProt P08581)
Sequence of Hepatocyte growth factor receptor (P08581 whole entry): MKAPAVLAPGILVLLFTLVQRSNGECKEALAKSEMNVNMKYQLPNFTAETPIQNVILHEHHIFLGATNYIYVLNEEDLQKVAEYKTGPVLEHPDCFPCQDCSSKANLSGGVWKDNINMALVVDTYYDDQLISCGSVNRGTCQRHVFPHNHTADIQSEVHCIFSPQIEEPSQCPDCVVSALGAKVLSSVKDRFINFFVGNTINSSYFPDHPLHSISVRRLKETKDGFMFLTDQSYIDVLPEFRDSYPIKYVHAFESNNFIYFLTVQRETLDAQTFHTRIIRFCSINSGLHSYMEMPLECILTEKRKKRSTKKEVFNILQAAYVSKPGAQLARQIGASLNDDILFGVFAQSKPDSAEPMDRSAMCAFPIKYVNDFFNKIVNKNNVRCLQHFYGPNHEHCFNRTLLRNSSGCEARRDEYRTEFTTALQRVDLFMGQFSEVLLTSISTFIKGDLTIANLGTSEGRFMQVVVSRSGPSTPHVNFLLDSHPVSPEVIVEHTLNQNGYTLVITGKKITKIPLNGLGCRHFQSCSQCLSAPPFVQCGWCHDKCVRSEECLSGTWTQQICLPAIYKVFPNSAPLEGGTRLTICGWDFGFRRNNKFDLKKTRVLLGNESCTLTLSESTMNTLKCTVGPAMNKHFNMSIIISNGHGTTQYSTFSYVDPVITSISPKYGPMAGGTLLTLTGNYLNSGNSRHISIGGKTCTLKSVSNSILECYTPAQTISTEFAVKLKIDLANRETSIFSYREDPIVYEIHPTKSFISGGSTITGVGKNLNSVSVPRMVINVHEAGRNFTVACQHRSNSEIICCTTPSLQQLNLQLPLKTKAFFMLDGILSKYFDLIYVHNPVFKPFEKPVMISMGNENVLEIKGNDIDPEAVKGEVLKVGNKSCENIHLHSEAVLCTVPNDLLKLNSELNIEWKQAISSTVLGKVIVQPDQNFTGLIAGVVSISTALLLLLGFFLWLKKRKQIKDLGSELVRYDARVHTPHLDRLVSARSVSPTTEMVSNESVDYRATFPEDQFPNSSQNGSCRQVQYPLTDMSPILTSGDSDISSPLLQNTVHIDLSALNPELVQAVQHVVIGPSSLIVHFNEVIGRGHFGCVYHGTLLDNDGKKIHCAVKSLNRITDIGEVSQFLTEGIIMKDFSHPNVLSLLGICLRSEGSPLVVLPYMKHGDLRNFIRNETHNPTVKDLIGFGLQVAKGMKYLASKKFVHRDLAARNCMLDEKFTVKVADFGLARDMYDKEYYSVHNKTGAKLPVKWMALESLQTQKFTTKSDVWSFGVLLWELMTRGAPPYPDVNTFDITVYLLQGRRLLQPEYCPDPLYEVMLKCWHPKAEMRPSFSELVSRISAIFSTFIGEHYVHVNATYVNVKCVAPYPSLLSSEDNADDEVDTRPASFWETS
Description: Inhibition of c-Met kinase (unknown origin) assessed as decrease in phosphorylation of TK substrate-biotin peptide preincubated for 5 to 10 mins followed by ATP addition measured after 30 mins by HTRF assay

[30] = biological target: T2, Cytochrome P450 2D6; assay: Inhibition of CYP2D6 in human liver microsomes at 10 uM using quinidine as […] preincubated for 5 mins followed by NADPH addition measured after 20 mins by LC-MS/MS analysis; format: ADME
[31] = biological target: Cytochrome P450 2C19 (Homo sapiens, UniProt P33261); assay: Inhibition of CYP2C19 in human liver microsomes at 10 uM using tranylcypromine as […] preincubated for 5 mins followed by NADPH addition measured after 20 mins by LC-MS/MS analysis; format: ADME
Sequence of Cytochrome P450 2C19 (P33261 whole entry): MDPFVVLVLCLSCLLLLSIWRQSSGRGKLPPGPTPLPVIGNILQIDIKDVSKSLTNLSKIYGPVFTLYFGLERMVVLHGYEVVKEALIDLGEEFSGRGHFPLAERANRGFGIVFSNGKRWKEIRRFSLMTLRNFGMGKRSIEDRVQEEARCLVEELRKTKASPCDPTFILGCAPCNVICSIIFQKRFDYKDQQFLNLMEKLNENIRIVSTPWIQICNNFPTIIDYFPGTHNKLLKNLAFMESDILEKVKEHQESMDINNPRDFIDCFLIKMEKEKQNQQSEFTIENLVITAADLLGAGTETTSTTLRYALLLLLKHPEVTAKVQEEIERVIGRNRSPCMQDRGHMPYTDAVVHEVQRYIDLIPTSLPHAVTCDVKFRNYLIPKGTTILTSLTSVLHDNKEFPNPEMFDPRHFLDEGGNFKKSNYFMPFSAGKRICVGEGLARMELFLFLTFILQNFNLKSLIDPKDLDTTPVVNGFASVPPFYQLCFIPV

[32] = biological target: T1, Cytochrome P450 3A4; assay: Inhibition of CYP3A4 in human liver microsomes at 10 uM using ketoconazole as […] preincubated for 5 mins followed by NADPH addition measured after 20 mins by LC-MS/MS analysis; format: ADME
[33] = biological target: T3, Cytochrome P450 1A2; assay: Inhibition of CYP1A2 in human liver microsomes at 10 uM using naphthoflavone as […] preincubated for 5 mins followed by NADPH addition measured after 20 mins by LC-MS/MS analysis; format: ADME

| Structure (SMILES) | Papp A→B at 1.5 h, 10 µM [1] [×10⁻⁶ cm/s] | microsomal CLint at 1 µM [2] [µL/min/mg] | IC50 [3] [µM] | microsomal CLint at 1 µM [4] [µL/min/mg] | inhibition (INH) [5] | inhibition (INH) [6] | inhibition (INH) [7] | inhibition (INH) [8] | Papp B→A at 1.5 h [9] [×10⁻⁶ cm/s] | efflux ratio at 1.5 h [10] | IC50 [29] [µM] | inhibition (INH) [30] | inhibition (INH) [31] | inhibition (INH) [32] | other results |
| --- | --- | --- | --- | --- | --- | --- | --- | --- | --- | --- | --- | --- | --- | --- | --- |
| O=C1OC2(c3ccc([O-])cc3Oc3cc([O-])ccc32)c2ccccc21.[Na+].[Na+] | 2.72 |  |  |  |  |  |  |  |  |  |  |  |  |  |  |
| C[C@@H](c1cc2cccnc2cc1F)n1cnc2ncc(-c3cnn(C)c3)nc21 | 46.6 | 49 | 0.0247 | 8 | Active | Not Active | Not Active | Not Active | 48.6 | 1.04 | 0.00145 |  |  |  | IC50 [11]: > 30 µM; IC50 [12]: > 30 µM; IC50 [13]: > 30 µM; IC50 [14]: > 30 µM; IC50 [15]: 20.6 µM; IC50 [16]: > 30 µM; IC50 [17]: 27.6 µM; IC50 [18]: 26.2 µM; IC50 [19]: > 30 µM; IC50 [20]: > 30 µM; IC50 [21]: > 30 µM; IC50 [22]: > 30 µM; IC50 [23]: > 30 µM; IC50 [24]: > 30 µM; IC50 [25]: > 30 µM; IC50 [26]: > 30 µM; IC50 [27]: > 30 µM; IC50 [28]: > 30 µM |
| CC(c1c(F)cc2ncccc2c1F)n1cnc2ncc(-c3cnc4ccccc4c3)nc21 (stereo unspecified) |  | 275 | 0.0461 | 51 | Active | Active | Active | Active |  |  | 0.0013 | Active | Active |  |  |
| CC(c1c(F)cc2ncccc2c1F)n1cnc2ncc(-c3cnn(C)c3)nc21 (stereo unspecified) |  | 63 | 0.0355 | 11 | Active | Not Active | Not Active | Not Active |  |  | 0.001 |  | Active |  |  |
| CC(c1cc2cccnc2cc1F)n1cnc2ncc(-c3cnn(C)c3)nc21 (stereo unspecified) | 39.3 | 18 | 0.0313 | 9 | Not Active | Not Active | Not Active | Not Active | 40.1 | 1.02 | 0.0016 | Not Active | Not Active | Not Active | inhibition (INH) [33]: Not Active |
| CNC(=O)c1ccc(-c2cnc3ncn(C(C)c4cc5cccnc5cc4F)c3n2)cc1F (stereo unspecified) | 39.8 | 85 | 0.0327 | 16 | Active | Active |  |  | 39.5 | 0.99 | 0.0023 | Active | Active | Active |  |
